Several values for one entry are separate records, joined by “and”; a condition that tells them apart may be missing. Equal values may be shown once. Read-outs that look alike come from different tables or passages of the source.
Key:
[1] = target: μ-subtype opioid receptor (MOR) (Homo sapiens, UniProt P35372); settings: cited from earlier work
[2] = cited from earlier work
[3] = cited from earlier work; remark: listed apart in the source
[4] = cited from earlier work; remark: listed apart in the source
[5] = 2 mg/mL; cited from earlier work
[6] = man, cited from earlier work
[7] = cited from earlier work; remark: listed apart in the source
[8] = animal studies, compared with codeine; cited from earlier work
[9] = cited from earlier work; remark: listed apart in the source
[10] = cited from earlier work; remark: listed apart in the source
[11] = mice, oral administration; cited from earlier work
[12] = mice, subcutaneous; cited from earlier work
[13] = mice, cited from earlier work
[14] = topical; cited from earlier work
[15] = cited from earlier work; remark: listed apart in the source
[16] = cited from earlier work; remark: listed apart in the source
[17] = cited from earlier work; remark: listed apart in the source
[18] = cited from earlier work; for excretion: as acid metabolites
[19] = 20 mg of THC and 120 mg of codeine; cited from earlier work
[20] = monkeys, up to 9000 mg/kg THC; cited from earlier work
[21] = cited from earlier work; for analgesic effect versus placebo: 5 mg of THC and 50 mg of codeine
[22] = of 750 courses of oral therapy; cited from earlier work
[23] = oral, dissolved in sesame oil, cited from earlier work
[24] = doses of 15 and 20 mg; cited from earlier work
[25] = 50 mg of THC daily, P<0.01; cited from earlier work
[26] = Acute oral toxicity of THC in rats (Thompson 1973); settings: 150 lb., female or male, respectively
[27] = dogs, cited from earlier work
[28] = by mouth, immediate-release formulation; cited from earlier work

Chain of μ-subtype opioid receptor (MOR) (P35372 whole entry): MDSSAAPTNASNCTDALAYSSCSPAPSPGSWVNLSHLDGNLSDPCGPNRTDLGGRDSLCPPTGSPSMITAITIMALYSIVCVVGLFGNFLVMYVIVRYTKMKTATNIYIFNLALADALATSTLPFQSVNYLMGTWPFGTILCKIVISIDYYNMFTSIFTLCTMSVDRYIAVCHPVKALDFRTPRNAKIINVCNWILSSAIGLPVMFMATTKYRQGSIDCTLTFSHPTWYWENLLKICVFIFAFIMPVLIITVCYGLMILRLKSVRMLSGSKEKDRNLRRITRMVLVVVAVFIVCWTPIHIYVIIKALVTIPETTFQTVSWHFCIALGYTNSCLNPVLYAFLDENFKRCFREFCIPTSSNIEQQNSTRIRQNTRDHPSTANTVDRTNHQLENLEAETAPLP

CC[C@@H]1CN2CCc3c([nH]c4cccc(OC)c34)[C@H]2C[C@@H]1/C(=C\OC)C(=O)OC (stereo in doubt) [mitragynine, (aE,2S,3S,12bS)-3-ethyl-1,2,3,4,6,7,12,12b-octahydro-8-methoxy-α-(methoxymethylene)-indolo[2,3-a]quinolizine-2-acetic acid methyl ester]
activity at the μ-subtype opioid receptor (MOR) [1]: partial agonists
lethality ([2]; rats, 200 mg/kg): lethal effects
toxicity ([2]; rodents, dose levels of 800-900 mg/kg): no toxicity
water solubility [3]: < 100 µg/mL
total drug release in in vitro dissolution ([4]; simulated gastric fluid (SGF)): higher
drug release in in vitro dissolution ([4]; simulated intestinal fluid (SIF)): prolonged and incomplete
nerve conduction, compound nerve action potential [5]: blocked the nerve conduction, amplitude and duration of compound nerve action potential
urine excretion of unchanged form ([6]; 24-hour period): 0.14%
apparent volume of distribution ([6]; oral Kratom tea, nine subjects): 38.04 ± 24.32 L/kg
terminal half-life ([6]; oral Kratom tea, nine subjects): 23.24 ± 16.07 h
time to reach the maximum plasma concentration ([6]; oral Kratom tea, nine subjects): 0.83 ± 0.35 h
2-deoxy-D-glucose-stimulated gastric acid secretion ([7]; administration into fourth ventricle of anesthetized rats, reversed by naloxone): inhibition of 2-deoxy-D-glucose-stimulated gastric acid secretion in a dose dependent manner
basal gastric acid secretion ([7]; administration into the lateral ventricle): did not alter
antinociceptive and cough-suppressant effects [8]: comparable to those of codeine
pKa ([9]; conventional UV): 8.11±0.11
pKa ([9]; microplate reader determination): 8.08±0.04
log P [10]: 1.73 and 1.70

CC[C@@H]1CN2CC[C@@]3(O)C(=Nc4cccc(OC)c43)[C@@H]2C[C@@H]1/C(=C\OC)C(=O)OC [7-hydroxymitragynine, (αE,2S,3S,7aS,12bS)-3-ethyl-1,2,3,4,6,7,7a,12b-octahydro-7a-hydroxy-8-methoxy-α-(methoxymethylene)-indolo[2,3-a]quinolizine-2-acetic acid methyl ester]
activity at the μ-subtype opioid receptor (MOR) [1]: partial agonists
analgesic potency relative to morphine [11]: thirteen times more potent analgesic than morphine
gastrointestinal transit [12]: inhibition of the gastrointestinal transit

C=C(C)[C@@H]1CCC(C)=C[C@H]1c1c(O)cc(CCCCC)cc1O [CBD, cannabidiol]
effectiveness at inhibition of PBQ-induced writhing among cannabinoids ([13]; oral, 100 micrograms/kg): most effective

CCCCCc1cc(O)c2c(c1)OC(C)(C)c1ccc(C)cc1-2 [CBN, cannabinol]
inhibition of PBQ-induced writhing ([13]; doses higher than 10 mg/kg): 40%
antagonism of TPA-induced erythema of skin [14]: least effective

CC(=O)Oc1cc(O[C@H](C)CCCc2ccccc2)cc2c1[C@@H]1C[C@H](O)CC[C@H]1[C@H](C)N2 [Levonantradol]
analgesia versus placebo ([15]; human small RCTs): superior to placebo
patients reporting sedation ([15]; in vivo): almost half the patients
analgesia versus placebo ([16]; 1.5, 2, 2.5, 3 mg intermuscular, all doses, at least P<0.05, no dose-response): significantly superior to placebo
patients reporting at least one side-effect ([16]; human, in vivo): 57%

CCCCCc1cc(O)c2c(c1)OC(C)(C)[C@@H]1CCC(C)=C[C@@H]21 [THC, (−)-(6aR,10aR)-6,6,9-trimethyl-3-pentyl-6a,7,8,10a-tetrahydro-6H-benzo[c]chromen-1-ol]
patients who experienced sedation ([17]; 10 mg/m2): one-third
patients with euphoria ([17]; 10 mg/m2): majority of patients
patients' self-reports of nausea and vomiting versus placebo ([17]; 22 cancer patients resistant to conventional anti-emetics, oral): statistically superior to placebo
dose at which maximally effective in the PBQ test ([13]; dose that induced catalepsy): 10 mg/kg
excretion ([18]; feces): 65-80%
bioavailability ([18]; healthy adults): 10-20%
biological half-life ([18]; in vivo): 1.6-59 h
metabolism ([18]; in vivo): mostly hepatic by CYP2C
bioavailability ([18]; inhalation): 10-35%
absolute bioavailability ([18]; oral administration, on an average): 13%
bioavailability ([18]; oral): 6-20%
biological half-life ([18]; orally administered dronabinol): 25-36 h
excretion ([18]; urine): 20-35%
analgesic effectiveness, THC versus codeine [19]: equally effective
death due to toxicity at maximum dose [20]: no cases of death
analgesic effect versus placebo [21]: analgesic effect in comparison with placebo
effect on spasticity ([21]; 5 mg of THC): significant effect on spasticity
poor or partial response [22]: approximately 65%
LD50 ([23]; female rats): 730 mg/kg
LD50 ([23]; male rats): 1270 mg/kg
analgesia versus placebo ([15]; human small RCTs): significantly superior to placebo
time of peak analgesia ([15]; human small RCTs): around 5 hours
pain relief versus placebo [24]: significantly superior to placebo
antagonism of TPA-induced erythema of skin [14]: least effective
morphine requirement during active treatment [25]: significantly reduced
LD50 scaled up to an adult human [26]: 50 to 86 g
minimum lethal oral dose ([27]; oral): more than 3 g/kg
death due to toxicity at maximum dose ([27]; up to 3000 mg/kg THC): no cases of death

COc1cccc(C2(O)CCCCC2CN(C)C)c1 (centres unmarked) [Tramadol]
onset of pain relief [28]: within an hour

COc1ccc2c3c1O[C@H]1[C@@H](O)C=C[C@H]4[C@@H](C2)N(C)CC[C@@]341 [codeine]
analgesic effectiveness, THC versus codeine [19]: equally effective
analgesic effect versus placebo [21]: analgesic effect in comparison with placebo

CCCCCc1cc(O)cc(O)c1 [olivetol]
dose of maximal effect in the PBQ test [13]: about 100 micrograms/kg
